Test results published in paper PMC5520691, “An enhanced bioluminescence-based Annexin V probe for apoptosis detection in vitro and in vivo” (Cell Death & Disease, 2017).

Target: T1, ArFP (Annexin V-Renilla luciferase RLuc8 fusion protein) (Homo sapiens, UniProt P08758)
T1 construct: gene ANXA5; Annexin V fused N-terminal to the RLuc8 reporter (Renilla reniformis luciferase mutant) via a short linker (GGSGGS by the primers); N-terminal 6xHis tag, pET-30 Xa/LIC, E. coli T7 Express, Ni-NTA; primers cover the Annexin V start (ATGGCACAGGTTCTC, MAQVL) and end (CGEDD)
T1 sequence (P08758 1-320): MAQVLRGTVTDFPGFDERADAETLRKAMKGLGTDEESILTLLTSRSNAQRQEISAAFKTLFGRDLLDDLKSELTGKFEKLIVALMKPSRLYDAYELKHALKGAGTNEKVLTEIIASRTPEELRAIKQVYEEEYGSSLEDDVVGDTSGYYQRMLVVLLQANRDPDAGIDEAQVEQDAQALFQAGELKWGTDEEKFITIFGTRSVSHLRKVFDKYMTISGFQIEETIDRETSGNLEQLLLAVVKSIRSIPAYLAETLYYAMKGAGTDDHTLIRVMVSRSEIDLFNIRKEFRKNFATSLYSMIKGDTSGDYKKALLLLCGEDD
Assay: isothermal titration calorimetry, vesicles titrated into protein, independent binding model
Conditions: read-out: Binding affinity for PS (KD)

- Kd: 20.7 µM
Structure (SMILES): CCCCCCCC/C=C\CCCCCCCC(=O)O[C@H](COC(=O)CCCCCCCCCCCCCCC)COP(=O)(O)OC[C@H](N)C(=O)O [POPS, 1-palmitoyl-2-oleoyl-sn-glycero-3-[phospho-L-serine]]
